# Patent publication US9132084B2, “Methods for administration and formulations for the treatment of regional adipose tissue” (NEOTHETICS, INC., priority 2009, dated 2015)
# Assay: Plasma pharmacokinetics following a single intravenous and subcutaneous injection of a combination of formoterol and budesonide
# Details: for AUC(0-inf): AUCinf; for bioavailability: F (bioavailability); for concentration at 0.0333 hr: male 1-0771, 0.0333 hr; for concentration at 0.0833 hr: male 1-0771, 0.0833 hr; for concentration at 0.167 hr: male 1-0771, 0.167 hr; for concentration at 0.333 hr: male 1-0771, 0.333 hr; for concentration at 0.5 hr: male 1-0771, 0.500 hr; for concentration at 0.75 hr: male 1-0771, 0.750 hr; for concentration at 1 hr: male 1-0771, 1.00 hr; for concentration at 2 hr: male 1-0771, 2.00 hr; for concentration at 4 hr: male 1-0771, 4.00 hr; for concentration at 8 hr: male 1-0771, 8.00 hr; for concentration at 24 hr: male 1-0771, 24.0 hr
# Protocol: Formoterol fumarate dehydrate and budesonide were formulated in 2% PEG-400 in saline. 1 male and 1 female non-naive Gottingen minipigs (8 to 12 kg upon receipt per protocol) were utilized. The animals were housed individually.
# Each minipig received a single IV injection of the combined formoterol and budesonide formulation followed by testing of the SC doses. Each dose was separated by at least a 3-day washout period. The IV dose was administered by slow bolus (1 minute; 0.017 hr) into the marginal ear vein, whereas the first SC dose was administered as a bolus injection along the back (neck-region) where there was a longitudinal fat depot. The second SC dose was distributed in 5 separate proximal SC injections separated by approximately 2 cm. Blood samples (approximately 4 mL) were collected via the branchiocephalic plexus at pre-dose and at 2, 5, 10, 20, 30 and 45 minutes, and at 1, 2, 4, 8 and 24 hr post-dose. Blood samples were placed in tubes containing K2-EDTA as the anticoagulant. Samples were processed to plasma by centrifugation and stored frozen at approximately −70° C. (+/−15° C.) until shipment for analysis.
# Plasma samples were analyzed for formoterol and budesonide using a qualified liquid chromatography/mass spectrometry/mass mass spectrometry (LC/MS/MS) method. The lower limit of quantitation (LLOQ) was 1.00 pg/mL for formoterol and 25.0 pg/mL for budesonide.
# Non-compartmental pharmacokinetic parameters were calculated using WinNonlin 5.2 software, NCA model 202, IV infusion input for the IV data and NCA model 200, extravascular input for the SC data. Individual plasma concentrations for each animal were used in the calculation of pharmacokinetic parameters. Nominal collection times and doses were used in the calculations. The area under the plasma concentration-time curve (AUC) was calculated using linear trapezoidal approximation (linear/log interpolation). Concentration values below the assay limit of quantitation were set to zero for calculations. The maximum plasma concentration (Cmax) and the time of its occurrence (Tmax) were verified by inspection. The half-life (t1/2) values were calculated using the last 3 plasma concentrations with nonzero values, if data permitted.
# [1] = male, Gottingen, minipig, in vivo, formoterol 0.4 μg/kg SC1 single site, combination, male 1-0771
# [2] = male, Gottingen, minipig, in vivo, formoterol 0.4 μg/kg SC5 (5 sites), combination, male 1-0771
# [3] = male, Gottingen, minipig, in vivo, Plasma concentration of formoterol, SC1 0.4 μg/kg, combination
# [4] = male, Gottingen, minipig, in vivo, Plasma concentration of formoterol, SC5 0.4 μg/kg, combination
# [5] = male, Gottingen, minipig, in vivo, iv, 0.4 ug/kg
# [6] = male, Gottingen, minipig, in vivo, iv, 0.4 ug/kg, formoterol 0.4 μg/kg IV in combination with budesonide, male 1-0771
# [7] = male, Gottingen, minipig, in vivo, iv, Plasma concentration of formoterol, IV 0.4 μg/kg, combination
smiles,measurement,setting,value
"COc1ccc(CC(C)NCC(O)c2ccc(O)c(NC=O)c2)cc1 (centres unmarked) [Formoterol, formoterol]",tlast,"formoterol 0.4 μg/kg IV in combination with budesonide, male 1-0771",8.00 h
same,tlast,"formoterol 0.4 μg/kg SC1 single site, combination, female 2-0623",8.00 h
same,tlast,"formoterol 0.4 μg/kg SC1 single site, combination, male 1-0771",24.0 h
same,tlast,"formoterol 0.4 μg/kg SC5 (5 sites), combination, female 2-0623",24.0 h
same,tlast,"formoterol 0.4 μg/kg SC5 (5 sites), combination, male 1-0771",24.0 h
same,partition ratio (plasma Cmax subcutaneous / intravenous),formoterol with budesonide in about 2% PEG-400 in saline,0.5
same,AUC(0-inf),[1],0.627 ng·h/mL
same,AUC(0-inf),[2],0.579 ng·h/mL
same,Cmax,[1],0.378 ng/mL
same,Cmax,[2],0.217 ng/mL
same,bioavailability,[1],238%
same,bioavailability,[2],219%
same,concentration at 0 hr,"male, Gottingen, minipig, in vivo, Plasma concentration of formoterol, SC1 0.4 μg/kg, combination, male 1-0771, 0 hr",4.63 pg/mL
same,concentration at 0.0333 hr,[3],0.378 ng/mL
same,concentration at 0.0833 hr,[3],0.294 ng/mL
same,concentration at 0.167 hr,[3],0.147 ng/mL
same,concentration at 0.333 hr,[3],0.121 ng/mL
same,concentration at 0.5 hr,[3],0.161 ng/mL
same,concentration at 0.75 hr,[3],0.079 ng/mL
same,concentration at 1 hr,[3],0.0833 ng/mL
same,concentration at 2 hr,[3],0.0822 ng/mL
same,concentration at 4 hr,[3],0.0422 ng/mL
same,concentration at 8 hr,[3],0.0152 ng/mL
same,concentration at 24 hr,[3],2.87 pg/mL
same,concentration at 0.0333 hr,[4],0.133 ng/mL
same,concentration at 0.0833 hr,[4],0.216 ng/mL
same,concentration at 0.167 hr,[4],0.217 ng/mL
same,concentration at 0.333 hr,[4],0.15 ng/mL
same,concentration at 0.5 hr,[4],0.0938 ng/mL
same,concentration at 0.75 hr,[4],0.0941 ng/mL
same,concentration at 1 hr,[4],0.0801 ng/mL
same,concentration at 2 hr,[4],0.0711 ng/mL
same,concentration at 4 hr,[4],0.0359 ng/mL
same,concentration at 8 hr,[4],0.0181 ng/mL
same,concentration at 24 hr,[4],1.3 pg/mL
same,Tmax,[1],2 min
same,Tmax,[2],10 min
same,Vd,[5],3.94 L/kg
same,clearance,[5],25.3 mL/min/kg
same,AUC(0-inf),[6],0.264 ng·h/mL
same,Cmax,[6],0.41 ng/mL
same,Tmax,[6],2 min
same,half-life,"male, Gottingen, minipig, in vivo, iv, 0.4 ug/kg, t1/2, formoterol 0.4 μg/kg IV in combination with budesonide, male 1-0771",152 min
same,concentration at 0.0333 hr,[7],0.41 ng/mL
same,concentration at 0.0833 hr,[7],0.0996 ng/mL
same,concentration at 0.167 hr,[7],0.0902 ng/mL
same,concentration at 0.333 hr,[7],0.0689 ng/mL
same,concentration at 0.5 hr,[7],0.057 ng/mL
same,concentration at 0.75 hr,[7],0.0488 ng/mL
same,concentration at 1 hr,[7],0.0813 ng/mL
same,concentration at 2 hr,[7],0.0265 ng/mL
same,concentration at 4 hr,[7],0.0183 ng/mL
same,concentration at 8 hr,[7],0.00533 ng/mL
same,half-life,"male, Gottingen, minipig, in vivo, t1/2, formoterol 0.4 μg/kg SC1 single site, combination, male 1-0771",331 min
same,half-life,"male, Gottingen, minipig, in vivo, t1/2, formoterol 0.4 μg/kg SC5 (5 sites), combination, male 1-0771",251 min
same,absorption after SC administration,"single site and divided over 5 sites, combination",well absorbed
